The assay concerns human umbilical vein endothelial cells (HUVEC). The experiment in a line: HUVEC proliferation assay. The settings on record: Homo sapiens, HUVEC, crude combinatorial urea library; for inhibition at 0.01 µM: 10 nM, read-out: Inhibition of HUVEC Proliferation % inhibition @ 10 nM; for inhibition at 0.05 µM: 50 nM, read-out: Inhibition of HUVEC Proliferation % inhibition @ 50 nM. Format: cell-based. The protocol: HUVEC Proliferation Assay
This assay determines the ability of a test compound to inhibit the growth factor-stimulated proliferation of human umbilical vein endothelial cells (“HUVEC”). HUVEC cells (passage 3-4, Clonetics, Corp.) were thawed into EGM2 culture medium (Clonetics Corp) in T75 flasks. Fresh EGM2 medium was added to the flasks 24 hours later. Four or five days later, cells were exposed to another culture medium (F12K medium supplemented with 10% fetal bovine serum (FBS), 60 μg/ml endothelial cell growth supplement (ECGS), and 0.1 mg/ml heparin). Exponentially-growing HUVEC cells were used in experiments thereafter. Ten to twelve thousand HUVEC cells were plated in 96-well dishes in 100 μl of rich, culture medium (described above). The cells were allowed to attach for 24 hours in this medium. The medium was then removed by aspiration and 105 μl of starvation media (F12K+1% FBS) was added to each well. After 24 hours, 15 μl of test agent dissolved in 1% DMSO in starvation medium or this vehicle alone was added into each treatment well; the final DMSO concentration was 0.1%. One hour later, 30 μl of VEGF (30 ng/ml) in starvation media was added to all wells except those containing untreated controls; the final VEGF concentration was 6 ng/ml. Cellular proliferation was quantified 72 hours later by MTT dye reduction, at which time cells were exposed for 4 hours MTT (Promega Corp.). Dye reduction was stopped by addition of a stop solution (Promega Corp.) and absorbance at 595 λ was determined on a 96-well spectrophotometer plate reader.
IC50 values were calculated by curve-fitting the response of A^595 to various concentrations of the test agent; typically, seven concentrations separated by 0.5 log were employed, with triplicate wells at each concentration. For screening compound library plates, one or two concentrations (one well per concentration) were employed, and the % inhibition was calculated by the following formula:
% inhibition=(control−test) divided by (control−starvation) […]
control=A^595 when VEGF is present without test agent test=A^595 when VEGF is present with test agent starvation=A^595 when VEGF and test agent are both absent.

For the compound `COc1cccc(C(=O)Nc2cccc(-c3csc(-c4sc(NC(=O)NCCCN5CCOCC5)nc4N)n3)c2)c1`, the inhibition at 0.01 µM was 19% and the inhibition at 0.05 µM is 83%.

Turning to `COc1cccc(C(=O)Nc2cccc(-c3csc(-c4sc(NC(=O)NCCC(C)C)nc4N)n3)c2)c1`, the inhibition at 0.01 µM amounted to 25% and the inhibition at 0.05 µM amounted to 18%.

Consider `COc1cccc(C(=O)Nc2cccc(-c3csc(-c4sc(NC(=O)NCC5CCCO5)nc4N)n3)c2)c1` (stereo not drawn), for which the inhibition at 0.01 µM was determined as 46% and the inhibition at 0.05 µM was 87%.

Regarding `COc1cccc(C(=O)Nc2cccc(-c3csc(-c4sc(NC(=O)NCCCN5CCCC5=O)nc4N)n3)c2)c1`, the inhibition at 0.01 µM was 28% and the inhibition at 0.05 µM stood at 123%.

On to `COc1cccc(C(=O)Nc2cccc(-c3csc(-c4sc(NC(=O)NCCC5CCCN5C)nc4N)n3)c2)c1` (stereo not drawn), for which the inhibition at 0.01 µM came out at 39% and the inhibition at 0.05 µM turned out to be 0%.

Take `COc1cccc(C(=O)Nc2cccc(-c3csc(-c4sc(NC(=O)NCCN5CCCCC5)nc4N)n3)c2)c1`: the inhibition at 0.01 µM was 22% and the inhibition at 0.05 µM was 25%.

As to `COc1cccc(C(=O)Nc2cccc(-c3csc(-c4sc(NC(=O)NCc5ccccc5)nc4N)n3)c2)c1`, the inhibition at 0.01 µM is -11% and the inhibition at 0.05 µM is 114%.

Turning to `COc1cccc(C(=O)Nc2cccc(-c3csc(-c4sc(NC(=O)NCCCN5CCCCC5C)nc4N)n3)c2)c1` (stereo not drawn), the inhibition at 0.01 µM was -18% and the inhibition at 0.05 µM was 55%.

Consider `COc1cccc(C(=O)Nc2cccc(-c3csc(-c4sc(NC(=O)NC5CCN(Cc6ccccc6)CC5)nc4N)n3)c2)c1`, for which the inhibition at 0.01 µM is -22% and the inhibition at 0.05 µM was 23%.

Consider `COc1cccc(C(=O)Nc2cccc(-c3csc(-c4sc(NC(=O)NCC(C)(C)CN(C)C)nc4N)n3)c2)c1`, for which the inhibition at 0.01 µM is -25% and the inhibition at 0.05 µM was 36%.

With `COc1cccc(C(=O)Nc2cccc(-c3csc(-c4sc(NC(=O)N[C@H]5CC[C@H](O)CC5)nc4N)n3)c2)c1`, the inhibition at 0.01 µM was -6% and the inhibition at 0.05 µM stood at 21%.

In the case of `COc1cccc(C(=O)Nc2cccc(-c3csc(-c4sc(NC(=O)NCCC(=O)O)nc4N)n3)c2)c1`, the inhibition at 0.01 µM is -1% and the inhibition at 0.05 µM worked out at 8%.

For the compound `COCCNC(=O)Nc1nc(N)c(-c2nc(-c3cccc(NC(=O)c4cccc(OC)c4)c3)cs2)s1`, the inhibition at 0.01 µM turned out to be 35% and the inhibition at 0.05 µM was determined as 32%.

Take `COc1cccc(C(=O)Nc2cccc(-c3csc(-c4sc(NC(=O)NCC(F)(F)F)nc4N)n3)c2)c1`: the inhibition at 0.01 µM came out at 20% and the inhibition at 0.05 µM worked out at 15%.

Take `COc1cccc(C(=O)Nc2cccc(-c3csc(-c4sc(NC(=O)NCCCn5ccnc5)nc4N)n3)c2)c1`: the inhibition at 0.01 µM stood at 9% and the inhibition at 0.05 µM was 39%.

Consider `COc1cccc(C(=O)Nc2cccc(-c3csc(-c4sc(NC(=O)NCCc5c[nH]cn5)nc4N)n3)c2)c1`, for which the inhibition at 0.01 µM amounted to 1% and the inhibition at 0.05 µM was -43%.

Turning to `COc1cccc(C(=O)Nc2cccc(-c3csc(-c4sc(NC(=O)NCS(=O)(=O)O)nc4N)n3)c2)c1`, the inhibition at 0.01 µM is -8% and the inhibition at 0.05 µM is 8%.

Turning to `COc1cccc(C(=O)Nc2cccc(-c3csc(-c4sc(NC(=O)NCCCN(C)c5ccccc5)nc4N)n3)c2)c1`, the inhibition at 0.01 µM was determined as 17% and the inhibition at 0.05 µM was found to be 98%.

For `COc1cccc(C(=O)Nc2cccc(-c3csc(-c4sc(NC(=O)NCc5ccc(S(N)(=O)=O)cc5)nc4N)n3)c2)c1`, the inhibition at 0.01 µM worked out at 26% and the inhibition at 0.05 µM was 36%.

Consider `COc1cccc(C(=O)Nc2cccc(-c3csc(-c4sc(NC(=O)NCCCN(CCO)CCO)nc4N)n3)c2)c1`, for which the inhibition at 0.01 µM was 2% and the inhibition at 0.05 µM stood at 65%.

On to `COc1cccc(C(=O)Nc2cccc(-c3csc(-c4sc(NC(=O)NCCc5ccncc5)nc4N)n3)c2)c1`, for which the inhibition at 0.01 µM was -5% and the inhibition at 0.05 µM amounted to 97%.
